# Measurements published in US20240092784A1, “CONDENSED HETEROCYCLIC COMPOUND” (NISSAN CHEMICAL CORPORATION, priority 2020, published 2024).
# Where a name gives a salt, the structure may show the parent alone.
# Biological target: human SPR (Homo sapiens (Human), UniProt P35270)
# Assay: Evaluation Example 2: Measurement of human SPR inhibitory activity (seven concentrations, sepiapterin absorbance at 420 nm)
# Type: biochemical
# Conditions: Evaluation Example 2, seven concentrations 0.14 nM to 100 nM, 240 minutes at room temperature, read-out: IC50
# Summary of the method: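 His-tagged full-length human SPR (1-261) was expressed in E. coli and the tag removed. Enzyme at 150 ng/mL in 100 mM Tris-HCl pH 7.5/0.01% BSA was mixed with compound (0.14–100 nM, seven points), 120 μM sepiapterin and 160 μM NADPH, both as added-solution concentrations. After 240 min at room temperature, remaining sepiapterin was read at 420 nm to give percent inhibition.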
# human SPR, sequence (P35270 whole entry): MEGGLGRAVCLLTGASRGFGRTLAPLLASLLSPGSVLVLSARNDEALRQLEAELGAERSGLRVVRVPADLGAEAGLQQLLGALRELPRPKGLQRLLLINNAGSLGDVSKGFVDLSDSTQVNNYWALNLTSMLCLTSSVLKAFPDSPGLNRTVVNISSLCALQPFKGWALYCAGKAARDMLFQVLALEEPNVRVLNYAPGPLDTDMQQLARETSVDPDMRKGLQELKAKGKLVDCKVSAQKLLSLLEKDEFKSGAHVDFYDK
row,SMILES,IC50 [nM]
1,"CC(C)Cn1c(=O)c(C(=O)NC2CC2)c(O)n2ncc(/C=C/C(=O)N3[C@@H](C)CC[C@@H]3C)c12 [compound 591, N-Cyclopropyl-3-((E)-3-((2S,5S)-2,5-dimethylpyrrolidin-1-yl)-3-oxoprop-1-en-1-yl)-7-hydroxy-4-isobutyl-5-oxo-4,5-dihydropyrazolo[1,5-a]pyrimidine-6-carboxamide]",1.29
2,"CC(C)Cn1c(=O)c(C(=O)NC2CC2)c(O)n2ncc(C(=O)NCc3cccnc3)c12 [Synthesis Example 216, N6-Cyclopropyl-7-hydroxy-4-isobutyl-5-oxo-N3-(pyridin-3-ylmethyl)-4,5-dihydropyrazolo[1,5-a]pyrimidine-3,6-dicarboxamide]",0.78
3,"CC(C)Cn1c(=O)c(C(=O)NC2CC2)c(O)n2ncc(/C=C/C3(C)CCOCC3)c12 [Synthesis Example 242, (E)-N-Cyclopropyl-7-hydroxy-4-isobutyl-3-(2-(4-methyltetrahydro-2H-pyran-4-yl)vinyl)-5-oxo-4,5-dihydropyrazolo[1,5-a]pyrimidine-6-carboxamide]",1.39
4,"NC(=O)c1cc2n(CC3CCC(F)(F)CC3)c(=O)c(C(=O)NC3CC3)c(O)n2n1 [Synthesis Example 276, N6-Cyclopropyl-4-((4,4-difluorocyclohexyl)methyl)-7-hydroxy-5-oxo-4,5-dihydropyrazolo[1,5-a]pyrimidine-2,6-dicarboxamide]",0.68
5,"CCc1c(N)nn2c(O)c(C(=O)NC3CC3)c(=O)n(CC(C)(C)C)c12 [Synthesis Example 436, 2-Amino-N-cyclopropyl-3-ethyl-7-hydroxy-4-neopentyl-5-oxo-4,5-dihydropyrazolo[1,5-a]pyrimidine-6-carboxamide hydrochloride]",1.2
6,"CN(C)C(=O)c1cn[nH]c1-c1cc2n(CC(C)(C)C)c(=O)c(C(=O)NC3CC3)c(O)n2n1 [Synthesis Example 314, N-Cyclopropyl-2-(4-(dimethylcarbamoyl)-1H-pyrazol-5-yl)-7-hydroxy-4-neopentyl-5-oxo-4,5-dihydropyrazolo[1,5-a]pyrimidine-6-carboxamide hydrochloride]",0.93
7,"C[C@H]1COCCN1C(=O)/C=C/c1cnn2c(O)c(C(=O)NC3CC3)c(=O)n(CC3(F)CC3)c12 [Synthesis Example 379, (S,E)-N-Cyclopropyl-4-((1-fluorocyclopropyl)methyl)-7-hydroxy-3-(3-(3-methylmorpholino)-3-oxoprop-1-en-1-yl)-5-oxo-4,5-dihydropyrazolo[1,5-a]pyrimidine-6-carboxamide]",0.7
8,"CC(C)Cn1c(=O)c(C(=O)NC2CC2)c(O)n2ncc(/C=C/C(=O)N3CC[C@@H](O)C3)c12 [compound 502, (R,E)-N-Cyclopropyl-7-hydroxy-3-(3-(3-hydroxypyrrolidin-1-yl)-3-oxoprop-1-en-1-yl)-4-isobutyl-5-oxo-4,5-dihydropyrazolo[1,5-a]pyrimidine-6-carboxamide]",0.7
9,"CC(C)Cn1c(=O)c(C(=O)NC2CC2)c(O)n2ncc(CC(=O)N3CCOCC3)c12 [Synthesis Example 264, N-Cyclopropyl-7-hydroxy-4-isobutyl-3-(2-morpholino-2-oxoethyl)-5-oxo-4,5-dihydropyrazolo[1,5-a]pyrimidine-6-carboxamide]",0.95
10,"CC(C)(C)Cn1c(=O)c(C(=O)NC2CC2)c(O)n2nc(Nc3cnc(C(=O)N4CC[C@H](O)C4)cn3)cc12 [Synthesis Example 360, (S)-N-Cyclopropyl-7-hydroxy-2-((5-(3-hydroxypyrrolidine-1-carbonyl)pyrazin-2-yl)amino)-4-neopentyl-5-oxo-4,5-dihydropyrazolo[1,5-a]pyrimidine-6-carboxamide]",0.76
11,"CC(C)Cn1c(=O)c(C(=O)NC2CC2)c(O)n2ncc(/C=C/C(=O)N3CC[C@@H](C(N)=O)C3)c12 [compound 513, (R,E)-3-(3-(3-Carbamoylpyrrolidin-1-yl)-3-oxoprop-1-en-1-yl)-N-cyclopropyl-7-hydroxy-4-isobutyl-5-oxo-4,5-dihydropyrazolo[1,5-a]pyrimidine-6-carboxamide]",0.75
12,"Cc1nn2c(O)c(C(=O)NC3CC3)c(=O)n(CC(C)C)c2c1/C=C/C(=O)N1CCCC1 [compound 564, (E)-N-Cyclopropyl-7-hydroxy-4-isobutyl-2-methyl-5-oxo-3-(3-oxo-3-(pyrrolidin-1-yl)prop-1-en-1-yl)-4,5-dihydropyrazolo[1,5-a]pyrimidine-6-carboxamide]",0.95
13,"CC(C)(C)Cn1c(=O)c(C(=O)NC2CC2)c(O)n2nc(Nc3ccnc(C(N)=O)n3)cc12 [Synthesis Example 351, 2-((2-Carbamoylpyrimidin-4-yl)amino)-N-cyclopropyl-7-hydroxy-4-neopentyl-5-oxo-4,5-dihydropyrazolo[1,5-a]pyrimidine-6-carboxamide]",0.9
14,"CC(C)(C)Cn1c(=O)c(C(=O)NC2CC2)c(O)n2nc(-c3[nH]ncc3C(=O)NCC3CCOCC3)cc12 [Synthesis Example 315, N-Cyclopropyl-7-hydroxy-4-neopentyl-5-oxo-2-(4-(((tetrahydro-2H-pyran-4-yl)methyl)carbamoyl)-1H-pyrazol-5-yl)-4,5-dihydropyrazolo[1,5-a]pyrimidine-6-carboxamide hydrochloride]",1.11
15,"CC(C)Cn1c(=O)c(C(=O)NC2CC2)c(O)n2ncc(/C=C/C(=O)N3CCC4(CCOCC4)C3)c12 [compound 559, (E)-N-Cyclopropyl-7-hydroxy-4-isobutyl-5-oxo-3-(3-oxo-3-(8-oxa-2-azaspiro[4.5]decan-2-yl)prop-1-en-1-yl)-4,5-dihydropyrazolo[1,5-a]pyrimidine-6-carboxamide]",1
16,"CC(C)Cn1c(=O)c(C(=O)NC2CC2)c(O)n2ncc(/C=C/C(=O)N3CCC[C@H](CO)C3)c12 [compound 528, (S,E)-N-Cyclopropyl-7-hydroxy-3-(3-(3-(hydroxymethyl)piperidin-1-yl)-3-oxoprop-1-en-1-yl)-4-isobutyl-5-oxo-4,5-dihydropyrazolo[1,5-a]pyrimidine-6-carboxamide]",0.85
17,CC(C)Cn1c(=O)c(C(=O)NC2CC2)c(O)n2ncc(/C=C/C(=O)N3CCC(S(C)(=O)=O)CC3)c12 [compound 488],0.87
18,"CC(C)Cn1c(=O)c(C(=O)NC2CC2)c(O)n2ncc(/C=C/C(=O)N3CCC[C@H]3C(C)C)c12 [compound 600, (S,E)-N-Cyclopropyl-7-hydroxy-4-isobutyl-3-(3-(2-isopropylpyrrolidin-1-yl)-3-oxoprop-1-en-1-yl)-5-oxo-4,5-dihydropyrazolo[1,5-a]pyrimidine-6-carboxamide]",1.47
19,"CC(C)(C)Cn1c(=O)c(C(=O)NC2CC2)c(O)n2nc(-c3cc(C#N)n[nH]3)cc12 [Synthesis Example 296, 2-(3-Cyano-1H-pyrazol-5-yl)-N-cyclopropyl-7-hydroxy-4-neopentyl-5-oxo-4,5-dihydropyrazolo[1,5-a]pyrimidine-6-carboxamide]",2.93

# Same assay, conditions: sepiapterin absorbance, Table 41, read-out: concentration at 50% inhibition of human SPR (IC50)
row,SMILES,IC50 [nM]
1,"CC(=O)N1CCC2(CCCN2C(=O)/C=C/c2cnn3c(O)c(C(=O)NC4CC4)c(=O)n(CC(C)C)c23)CC1 [Synthesis Example 737, (E)-3-(3-(8-Acetyl-1,8-diazaspiro[4.5]decan-1-yl)-3-oxoprop-1-en-1-yl)-N-cyclopropyl-7-hydroxy-4-isobutyl-5-oxo-4,5-dihydropyrazolo[1,5-a]pyrimidine-6-carboxamide]",1.9
2,"CC(C)Cn1c(=O)c(C(=O)NC2CC2)c(O)n2ncc(/C=C/C(=O)N3CCc4cnccc43)c12 [Synthesis Example 740, (E)-N-Cyclopropyl-3-(3-(2,3-dihydro-1H-pyrrolo[3,2-c]pyridin-1-yl)-3-oxoprop-1-en-1-yl)-7-hydroxy-4-isobutyl-5-oxo-4,5-dihydropyrazolo[1,5-a]pyrimidine-6-carboxamide]",1.81
3,"CC(C)Cn1c(=O)c(C(=O)NC2CC2)c(O)n2ncc(/C=C/C(=O)N(C)Cc3ncccn3)c12 [Synthesis Example 711, (E)-N-Cyclopropyl-7-hydroxy-4-isobutyl-3-(3-(methyl(pyrimidin-2-ylmethyl)amino)-3-oxoprop-1-en-1-yl)-5-oxo-4,5-dihydropyrazolo[1,5-a]pyrimidine-6-carboxamide]",1.2
4,"CC(C)Cn1c(=O)c(C(=O)NC2CC2)c(O)n2ncc(/C=C/C(=O)N3CCc4ccncc43)c12 [Synthesis Example 742, (E)-N-Cyclopropyl-3-(3-(2,3-dihydro-1H-pyrrolo[2,3-c]pyridin-1-yl)-3-oxoprop-1-en-1-yl)-7-hydroxy-4-isobutyl-5-oxo-4,5-dihydropyrazolo[1,5-a]pyrimidine-6-carboxamide]",1.59
5,"CC(C)Cn1c(=O)c(C(=O)NC2CC2)c(O)n2ncc(/C=C/C(=O)N3CCN(CC4CC(F)(F)C4)CC3)c12 [Synthesis Example 714, (E)-N-Cyclopropyl-3-(3-(4-((3,3-difluorocyclobutyl)methyl)piperazin-1-yl)-3-oxoprop-1-en-1-yl)-7-hydroxy-4-isobutyl-5-oxo-4,5-dihydropyrazolo[1,5-a]pyrimidine-6-carboxamide]",2.54
6,"Cc1nn2c(O)c(C(=O)NC3CC3)c(=O)n(CC(C)C)c2c1/C=C/C(=O)N1CCN(CC2CC(F)(F)C2)CC1 [Synthesis Example 698, (E)-N-Cyclopropyl-3-(3-(4-((3,3-difluorocyclobutyl)methyl)piperazin-1-yl)-3-oxoprop-1-en-1-yl)-7-hydroxy-4-isobutyl-2-methyl-5-oxo-4,5-dihydropyrazolo[1,5-a]pyrimidine-6-carboxamide]",1.52
7,"Cc1nn2c(O)c(C(=O)NC3CC3)c(=O)n(CC(C)(C)C)c2c1/C=C/C(=O)N(C)CC#N [Synthesis Example 690, (E)-3-(3-((Cyanomethyl)(methyl)amino)-3-oxoprop-1-en-1-yl)-N-cyclopropyl-7-hydroxy-2-methyl-4-neopentyl-5-oxo-4,5-dihydropyrazolo[1,5-a]pyrimidine-6-carboxamide]",1.46
